Measurements: patent US5466811A, “Dioxolenylmethyl carbamates pro moieties for amine drugs” (Merck & Co., Inc., priority 1994, dated 1995)

Assays:
rats = conditions: oral administration, Sakamoto, et al, Chem. Pharm. Bull., 1985, 33, 4870; cited from earlier work
in vitro = in vitro ADME; conditions: rat, plasma
Method: The process of hydrolysis of the dioxolenylmethyl carbamate of 3,4-dimethoxyphenethylamine was studied by measuring the formation of dimethoxyphenethylamine at 37° C. in neat rat plasma. The reaction was initiated by adding a dimethyl sulfoxide (DMSO) solution of the carbamate to the reaction medium pre-equilibrated at 37° C. in a thermostated water bath. The initial concentrations of the carbamate in rat plasma was 4.3×10^-3 M and the concentration of DMSO was 10%. Samples (100 μL of acetonitrile, vortex mixed for 30 seconds to precipitate the plasma proteins, and centrifuged at 10,000 X g for 5 minutes. The supematants were injected directly and analyxed by HPLC. The HPLC column used was a 10 cm spheri-5 RP-18 column combined with a similar 3 cm guard column. The mobile phase used for the analysis of dimethoxyphenethylamine was 30% v/v of acetonitrile in water containing 0.5 mL/L of 85% phosphoric acid and 0.5 mL/L of triethylamine at a flow rate of 2 mL per minute. The concentration was measured at 280 nm using a variable wave length UV detector. The retention time of dimethoxyphenethylamine under these conditions was 5.8 minutes.

| SMILES | regeneration of the parent drug (rats) | half-life at 4300 µM (in vitro) [min] |
| --- | --- | --- |
| CCn1cc(C(=O)O)c(=O)c2cc(F)c(N3CCN(Cc4oc(=O)oc4C)CC3)cc21 [alkylated nofloxacin] | regenerated the parent drug |  |
| COc1ccc(CCNC(=O)OCc2oc(=O)oc2C)cc1OC [5'-methyl-2'-oxo-1',3'-dioxol-4'-enyl-4'-methylcarbamoyl-3,4-dimethoxyphenethylamine] |  | 11 |
